Earlier results on 2 molecules are cited in patent publication US20230049822A1, “COMPOSITIONS COMPRISING NICLOSAMIDE FOR USE IN TREATING CONDITIONS ASSOCIATED WITH AN ABNORMAL INFLAMMATORY RESPONSE” (First Wave Bio, Inc., priority 2020, published 2023).

Where a name gives a salt, the structure may show the parent alone.

Series [1] concerns pathogenic T cells isolated from IBD patients. Conditions: see WO 2017/040864.
The next series relates to murine models of IBD. The note with it: see WO 2017/040864.

Regarding `O=C(Nc1ccc([N+](=O)[O-])cc1Cl)c1cc(Cl)ccc1O` [Niclosamide, 5-chloro-N-(2-chloro-4-nitrophenyl)-2-hydroxybenzamide], the solubility in acetone result is “soluble”; the “solubility in ether, ethanol and chloroform” value is given as “sparingly soluble”. The water solubility (at 20° C.) was 5 to 8 µg/mL. Further, the “killing of pathogenic T cells” value in series [1] is given as “kills pathogenic T cells”. Also, the “efficacy in murine models of IBD” value in the series on murine models of IBD is recorded as “effective”.
Regarding `O=C(Nc1ccc([N+](=O)[O-])cc1Cl)c1cc(Cl)ccc1O` [ethanolamine salt, 5-chloro-N-(2-chloro-4-nitrophenyl)-2-hydroxybenzamide with 2-aminoethanol (1:1)], the “dissolves in distilled water” value (distilled water, 20° C.) was 180 to 280 mg/L.
